Legend:
[1] = target: T1, human intelectin-1 (hIntL-1) (Homo sapiens, UniProt Q8WWA0); assay: competitive inhibition of hIntL-1 binding to β-Galf
Target sequence in this assay (Q8WWA0 19-298): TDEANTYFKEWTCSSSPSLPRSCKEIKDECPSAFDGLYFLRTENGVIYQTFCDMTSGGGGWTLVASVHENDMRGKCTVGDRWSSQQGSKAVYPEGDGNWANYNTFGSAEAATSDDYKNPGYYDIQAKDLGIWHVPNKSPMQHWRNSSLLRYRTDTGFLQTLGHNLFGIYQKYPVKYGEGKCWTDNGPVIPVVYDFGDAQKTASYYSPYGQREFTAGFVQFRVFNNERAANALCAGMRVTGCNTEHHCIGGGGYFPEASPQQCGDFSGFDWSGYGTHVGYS

[2] = target: T1, human intelectin-1 (hIntL-1); assay: ELISA-like assay on immobilized biotinylated carbohydrate; assay type: binding
Target sequence in this assay (Q8WWA0 whole entry): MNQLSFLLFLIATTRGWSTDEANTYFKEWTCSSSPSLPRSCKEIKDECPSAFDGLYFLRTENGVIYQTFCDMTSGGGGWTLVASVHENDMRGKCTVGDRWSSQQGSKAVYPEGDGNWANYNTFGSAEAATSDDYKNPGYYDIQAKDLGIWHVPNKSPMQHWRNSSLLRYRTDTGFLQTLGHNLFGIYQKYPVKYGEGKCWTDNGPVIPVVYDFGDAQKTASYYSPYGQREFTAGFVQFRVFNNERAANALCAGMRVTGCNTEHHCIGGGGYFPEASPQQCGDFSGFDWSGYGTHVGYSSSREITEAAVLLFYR

| Kd [2] | Molecule | competitive inhibition of hIntL-1 binding to β-Galf [1] |
| --- | --- | --- |
|  | O=P(O)(O)OCC(O)CO (centres unmarked) [glycerol-1-phosphate] | glycerol and glycerol-1-phosphate— competitively inhibit the lectin from binding to β-Galf |
| 85 ± 14 nM | β-D-Galf (biotinylated, immobilized) [β-Galf] |  |

— article PMC4526365 (Nature structural & molecular biology, 2015)
